Converted amounts (≈) assume the structure as drawn.
Tests used:
P. aeruginosa R1023 = assay: In vivo efficacy, whole-body infected mouse model, Ceftazidime-resistant bacteria;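 on Survival rate: each column one dose of 5 10 20 or 40 mg/kg given sc at 1 h and 4 h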; parameters: species or system ICR mouse; conditions: for Survival rate: subcutaneous 1 h and 4 h after infection, P. aeruginosa R1023 (2 × 10^6 CFU/mouse), four days
Method: (§1) Pharmaceutical efficacy of the cephalosporin derivative compounds according to the present invention was evaluated in a whole-body infected mouse model. Tables 3 and 4 show survival rate and ED50 values for the two compounds with excellent antibacterial activity with regard to an infected mouse by a drug-sensitive bacteria and a drug-resistant bacteria.
(§2) Test animals: 3 week old male ICR mouse, weight 18˜22 g; 5 mice/group.
(§3) Lab conditions: Temperature of 23±2° C.; humidity of 55±20%.
(§4) Administration method: Inducing whole-body infection by bacterial solution followed by subcutaneous injection (0.2 mL) after 1 hour and 4 hours.
(§5) Test method: Cultured bacteria were diluted with 0.9% NaCl to prepare a bacterial solution having a concentration that is 5 to 10 times of […]. 0.5 mL of bacterial solution was injected through abdominal cavity to induce whole-body infection. Test compounds were administered in four different amounts, which were designed considering in vitro MIC values of the test bacteria. After 1 hour and 4 hours, the four different amounts of the test compounds were subcutaneously administered. Survival rates were measured for four days and ED50 values were calculated according to the Probit method.

P. aeruginosa 1912E [1] = assay: In vivo efficacy, whole-body infected mouse model, Ceftazidime-sensitive bacteria; parameters: species or system ICR mouse; conditions: P. aeruginosa 1912E (2 × 10^6CFU/mouse); for Survival rate: four days
Method: as §1, §2, §3, §4, §5

[2] = test system: A. baumannii (6 clinical isolates); assay: Antibacterial activity on representative drug-resistance bacteria: number of clinical isolates per MIC value; format: cell-based; conditions: MIC >16 ug/mL; A. baumanni (N = 6)
Method: (§6) The in vitro antibacterial activity was evaluated by measuring MIC90 (ug/mL) of each of the compounds of Examples 1 to 68, which is defined as the lowest concentration of an antibiotic that will inhibit the visible growth of 90% of microorganisms after incubation as compared with a control group to which the antibiotic is not treated. MIC90 values were measured by the broth microdilution method developed by the Clinical and Laboratory Standards Institute (CLSI) (see CLSI M7-A5, Methods for Dilution Antimicrobial Susceptibility Test for Bacteria that Grow Aerobically-Fifth Edition (2000): CLSI, Villanova, Pa.).
(§7) Test compounds each (the cephalosporin derivative compounds prepared in Examples 1 to 68) were dissolved in DMSO at the concentration of 10,240 ug/mL, were diluted by two fold with DMSO, and then were diluted by twenty fold with sterilized distilled water. The final concentration in the antibacterial activity test was in the range of […] to 128 ug/mL, and the final concentration of DMSO used as an adjuvant was 2.5% (V/V).

[3] = test system: P. aeruginosa (16 clinical isolates); assay: as above; format: cell-based; conditions: P. aeruginosa (N = 16)
Method: as §6, §7

[4] = test system: K. pneumoniae (38 clinical isolates); assay: as above; format: cell-based; conditions: K. pneumomiae (N = 38)
Method: as §6, §7

P. aeruginosa 40 = assay: In vitro antibacterial activity test (broth microdilution); format: cell-based; conditions: Pseudomonas aeruginosa, 40, P. aeruginosa 40; read-out: MIC90
In short: (§8)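 Clinical isolates; CLSI broth microdilution; MIC90 in ug/mL; final compound range 0.0626–128 ug/mL; DMSO 2.5% (V/V) final.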

K. pneumoniae β9 = assay: as above; format: cell-based; conditions: Klebsiella pneumoniae, K. pneumoniae β9; read-out: MIC90
In short: as §8

[5] = test system: A. calcoaceticus ATCC15473; assay: as above; format: cell-based; conditions: Acinetobacter calcoaceticus; A. calcoaceticus ATCC15473; read-out: MIC90
In short: as §8

K. pneumoniae β11 = assay: as above; format: cell-based; conditions: Klebsiella pneumoniae; K. pneumoniae β11; read-out: MIC90
In short: as §8

E. coli β4 = assay: as above; format: cell-based; conditions: Escherichia coli, read-out: MIC90
In short: as §8

K. pneumoniae β13 = assay: as above; format: cell-based; conditions: Klebsiella pneumoniae, K. pneumoniae β13; read-out: MIC90
In short: as §8

P. aeruginosa 43 = assay: as above; format: cell-based; conditions: Pseudomonas aeruginosa; P. aeruginosa 43; read-out: MIC90
In short: as §8

E. coli AG100 = assay: as above; format: cell-based; conditions: Escherichia coli, AG100, E. coli AG100; read-out: MIC90
In short: as §8

P. aeruginosa 6065Y = assay: as above; format: cell-based; conditions: Pseudomonas aeruginosa, read-out: MIC90
In short: as §8

A. baumannii 46 = assay: as above; format: cell-based; conditions: Acinetobacter baumannii; A. baumannii 46; read-out: MIC90
In short: as §8

K. pneumoniae β14 = assay: as above; format: cell-based; conditions: Klebsiella pneumoniae, read-out: MIC90
In short: as §8

E. cloacae β19 = assay: as above; format: cell-based; conditions: Enterobacter cloacae, read-out: MIC90
In short: as §8

A. baumannii 49 = assay: as above; format: cell-based; conditions: Acinetobacter baumannii; A. baumannii 49; read-out: MIC90
In short: as §8

K. pneumoniae 2011E = assay: as above; format: cell-based; conditions: Klebsiella pneumoniae, 2011E, K. pneumoniae 2011E; read-out: MIC90
In short: as §8

A. baumannii 52 = assay: as above; format: cell-based; conditions: Acinetobacter baumannii; A. baumannii 52; read-out: MIC90
In short: as §8

K. pneumoniae β10 = assay: as above; format: cell-based; conditions: Klebsiella pneumoniae; K. pneumoniae β10; read-out: MIC90
In short: as §8

M. catarrhalis 2524 = assay: as above; format: cell-based; conditions: Moraxella catarrhalis; M. catarrhalis 2524; read-out: MIC90
In short: as §8

P. aeruginosa 37 = assay: as above; format: cell-based; conditions: Pseudomonas aeruginosa, 37, P. aeruginosa 37; read-out: MIC90
In short: as §8

P. aeruginosa 1912E [6] = assay: as above; format: cell-based; conditions: Pseudomonas aeruginosa, 1912E, read-out: MIC90
In short: as §8

CC(C)(O/N=C(\C(=O)N[C@@H]1C(=O)N2C(C(=O)[O-])=C(C[n+]3ccccc3)CS[C@H]12)c1csc(N)n1)C(=O)O [Ceftazidime, reference compound]
ED50 (P. aeruginosa R1023; Pseudomonas aeruginosa, sc, Probit method, subcutaneous, mouse infected by Ceftazidime-resistant P. aeruginosa R1023): 640 mg/kg
Survival rate (P. aeruginosa R1023; administered amount 5 mg/kg): 0%
Survival rate (P. aeruginosa R1023; administered amount 10 mg/kg): 20%
Survival rate (P. aeruginosa R1023; administered amount 20 mg/kg): 20%
Survival rate (P. aeruginosa R1023; administered amount 40 mg/kg): 20%
Survival rate (P. aeruginosa 1912E [1]; 2.5 mg/kg subcutaneous after 1 hour and 4 hours): 40%
Survival rate (P. aeruginosa 1912E [1]; 5 mg/kg subcutaneous after 1 hour and 4 hours): 80%
Survival rate (P. aeruginosa 1912E [1]; 10 mg/kg subcutaneous after 1 hour and 4 hours): 100%
Survival rate (P. aeruginosa 1912E [1]; 20 mg/kg subcutaneous after 1 hour and 4 hours): 100%
ED50 (P. aeruginosa 1912E [1]; Pseudomonas aeruginosa, sc, subcutaneous, Probit method): 2.5 mg/kg
number of clinical isolates that showed the respective MIC value [2]: 6
number of clinical isolates that showed the respective MIC value ([3]; MIC 2 ug/mL): 1
number of clinical isolates that showed the respective MIC value ([3]; MIC 4 ug/mL): 2
number of clinical isolates that showed the respective MIC value ([3]; MIC 8 ug/mL): 1
number of clinical isolates that showed the respective MIC value ([3]; MIC 16 ug/mL): 1
number of clinical isolates that showed the respective MIC value ([3]; MIC >16 ug/mL): 11
number of clinical isolates that showed the respective MIC value ([4]; MIC 0.5 ug/mL): 2
number of clinical isolates that showed the respective MIC value ([4]; MIC 4 ug/mL): 1
number of clinical isolates that showed the respective MIC value ([4]; MIC 16 ug/mL): 3
number of clinical isolates that showed the respective MIC value ([4]; MIC >16 ug/mL): 32
MIC90 (P. aeruginosa 40): 4 mg/L (≈ 7.32 µM)
MIC90 (K. pneumoniae β9): 16 mg/L (≈ 29.3 µM)
MIC90 [5]: 1 mg/L (≈ 1.83 µM)
MIC90 (K. pneumoniae β11): 64 mg/L (≈ 117 µM)
MIC90 (E. coli β4): 8 mg/L (≈ 14.6 µM)
MIC90 (K. pneumoniae β13): 32 mg/L (≈ 58.5 µM)
MIC90 (P. aeruginosa 43): 16 mg/L (≈ 29.3 µM)
MIC90 (E. coli AG100): 0.5 mg/L (≈ 0.915 µM)
MIC90 (P. aeruginosa 6065Y): 32 mg/L (≈ 58.5 µM)
MIC90 (A. baumannii 46): 4 mg/L (≈ 7.32 µM)
MIC90 (K. pneumoniae β14): 64 mg/L (≈ 117 µM)
MIC90 (E. cloacae β19): 32 mg/L (≈ 58.5 µM)
MIC90 (A. baumannii 49): > 64 mg/L
MIC90 (K. pneumoniae 2011E): 1 mg/L (≈ 1.83 µM)
MIC90 (A. baumannii 52): > 64 mg/L
MIC90 (K. pneumoniae β10): 32 mg/L (≈ 58.5 µM)
MIC90 (M. catarrhalis 2524): < 0.0625 mg/L
MIC90 (P. aeruginosa 37): 64 mg/L (≈ 117 µM)
MIC90 (P. aeruginosa 1912E [6]): 1 mg/L (≈ 1.83 µM)

Cn1c(N)c(NC(=O)NCCN)c[n+]1CC1=C(C(=O)O)N2C(=O)[C@@H](NC(=O)/C(=N\OC(C)(C)C(=O)[O-])c3nsc(N)n3)[C@H]2SC1 [CXA-101, reference compound]
number of clinical isolates that showed the respective MIC value [2]: 6
number of clinical isolates that showed the respective MIC value ([3]; MIC 2 ug/mL): 4
number of clinical isolates that showed the respective MIC value ([3]; MIC 4 ug/mL): 4
number of clinical isolates that showed the respective MIC value ([3]; MIC 8 ug/mL): 1
number of clinical isolates that showed the respective MIC value ([3]; MIC >16 ug/mL): 7
number of clinical isolates that showed the respective MIC value ([4]; MIC 1 ug/mL): 1
number of clinical isolates that showed the respective MIC value ([4]; MIC 2 ug/mL): 1
number of clinical isolates that showed the respective MIC value ([4]; MIC 16 ug/mL): 1
number of clinical isolates that showed the respective MIC value ([4]; MIC >16 ug/mL): 35
